Experimental data taken from US12577228B2, “Dihydrocyclopenta-isoquinoline-sulfonamide derivatives compounds” (UCB Biopharma SRL, priority 2019, dated 2026).

Target: T1, IgE-Tb / soluble IgE receptor FcεRIα with a Y131A mutation (Homo sapiens, UniProt P01854, N146Q/N252Q)
T1 construct: fused on or other part: Terbium chelate (LanthaScreen amine-reactive) on IgE-Fc; Alexa Fluor 488 hydrazide on the oxidised glycans of sFcεRIα; Both are labels and no part of the key
Test: in vitro FRET assay: binding of IgE-Tb to receptor FcεRIα-Y131A-AF488 and its inhibition by compounds
Conditions: 5 nM IgE-Tb, 25 nM FcεRIα-Y131A-AF488, 2 hours at room temperature; read-out: FRET IC50 range

T1 sequence (P01854 104-427 N146Q/N252Q): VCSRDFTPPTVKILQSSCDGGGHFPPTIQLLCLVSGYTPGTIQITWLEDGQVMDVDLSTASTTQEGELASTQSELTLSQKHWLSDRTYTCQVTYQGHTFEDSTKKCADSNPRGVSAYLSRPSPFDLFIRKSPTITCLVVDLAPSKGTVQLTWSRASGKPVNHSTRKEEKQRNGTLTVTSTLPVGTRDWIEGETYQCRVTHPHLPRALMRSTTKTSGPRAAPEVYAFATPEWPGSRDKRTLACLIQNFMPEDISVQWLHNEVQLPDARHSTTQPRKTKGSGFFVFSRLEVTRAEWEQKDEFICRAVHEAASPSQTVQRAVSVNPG
T1 sequence (P12319 26-201 Y156A partner): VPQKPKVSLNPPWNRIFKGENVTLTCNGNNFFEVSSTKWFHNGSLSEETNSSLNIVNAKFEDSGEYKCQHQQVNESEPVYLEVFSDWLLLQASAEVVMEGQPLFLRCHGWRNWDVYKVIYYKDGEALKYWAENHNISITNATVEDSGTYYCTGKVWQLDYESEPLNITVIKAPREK

SMILES | IC50 [nM]
Cn1nnc(-c2ccc(N[C@@H]3Cc4cc5cnc(C6CC6)cc5c(S(=O)(=O)NCC(C)(C)F)c4C3)cc2)n1 [Example 125, (7R)-3-cyclopropyl-N-(2-fluoro-2-methylpropyl)-7-[4-(2-methyltetrazol-5-yl)anilino]-7,8-dihydro-6H-cyclopenta[g]isoquinoline-5-sulfonamide] | 50 to 100
CC(C)(F)CNS(=O)(=O)c1c2c(cc3cnc(C4CC4)cc13)C[C@@H](Nc1ccc(S(N)(=O)=O)nc1)C2 [Example 61, (7R)-3-cyclopropyl-N-(2-fluoro-2-methylpropyl)-7-[(6-sulfamoylpyridin-3-yl)amino]-7,8-dihydro-6H-cyclopenta[g]isoquinoline-5-sulfonamide] | 10 to 50
CC(O)CNS(=O)(=O)c1c2c(cc3cnc(C4CC4)cc13)CCC2 (stereo not shown) [Example 17, 3-cyclopropyl-N-(2-hydroxypropyl)-7,8-dihydro-6H-cyclopenta[g]isoquinoline-5-sulfonamide] | 100 to 2000
COc1cc(Oc2cncc(N[C@@H]3Cc4cc5cnc(C6CC6)cc5c(S(=O)(=O)NCC(C)(C)F)c4C3)c2)ccn1 [Example 16, (7R)-3-cyclopropyl-N-(2-fluoro-2-methylpropyl)-7-[[5-(2-methoxypyridin-4-yl)oxypyridin-3-yl]amino]-7,8-dihydro-6H-cyclopenta[g]isoquinoline-5-sulfonamide] | 50 to 100
CC(C)(F)CNS(=O)(=O)c1c2c(cc3nnc(C4CC4)cc13)CC(NC(=O)OC(C)(C)C)C2 (stereo not shown) [Example 65, tert-butyl N-[3-cyclopropyl-5-[(2-fluoro-2-methylpropyl)sulfamoyl]-7,8-dihydro-6H-cyclopenta[g]cinnolin-7-yl]carbamate] | 100 to 2000
Cc1nc(C2CC2)cc2c(S(=O)(=O)NCC(C)C)c3c(cc12)CCC3 [Example 67, 3-cyclopropyl-1-methyl-N-(2-methylpropyl)-7,8-dihydro-6H-cyclopenta[g]isoquinoline-5-sulfonamide] | 100 to 2000
NC(=O)c1ccc(N[C@@H]2Cc3cc4cnc(C5CC5)cc4c(S(=O)(=O)NC4CC(F)(F)C4)c3C2)nn1 [Example 94, 6-[[(7R)-3-cyclopropyl-5-[(3,3-difluorocyclobutyl)sulfamoyl]-7,8-dihydro-6H-cyclopenta[g]isoquinolin-7-yl]amino]pyridazine-3-carboxamide] | 10 to 50
CC(C)(F)CNS(=O)(=O)c1c2c(cc3cnc(C4CC4)cc13)CC(Nc1cncnc1Nc1cccnc1)C2 (stereo not shown) [Example 18, 3-cyclopropyl-N-(2-fluoro-2-methylpropyl)-7-[[4-(pyridin-3-ylamino)pyrimidin-5-yl]amino]-7,8-dihydro-6H-cyclopenta[g]isoquinoline-5-sulfonamide] | 1 to 10
CC(C)(F)CNS(=O)(=O)c1c2c(cc3cnc(C4CC4)cc13)C[C@@H](Nc1ccc(C(C)(C)O)nc1)C2 [Example 39, (7R)-3-cyclopropyl-N-(2-fluoro-2-methylpropyl)-7-[[6-(2-hydroxypropan-2-yl)pyridin-3-yl]amino]-7,8-dihydro-6H-cyclopenta[g]isoquinoline-5-sulfonamide] | 10 to 50
CC(C)(F)CNS(=O)(=O)c1c2c(cc3cnc(C4CC4)cc13)CC1(COC(=O)N1)C2 (stereo not shown) [Example 49, 3′-cyclopropyl-N-(2-fluoro-2-methylpropyl)-2-oxospiro[1,3-oxazolidine-4,7′-6,8-dihydrocyclopenta[g]isoquinoline]-5′-sulfonamide] | 100 to 2000
Cn1ncc(NC2Cc3cc4cnc(C5CC5)cc4c(S(=O)(=O)NCC(C)(C)F)c3C2)cc1=O (stereo not shown) [Example 140, 3-cyclopropyl-N-(2-fluoro-2-methylpropyl)-7-[(1-methyl-6-oxopyridazin-4-yl)amino]-7,8-dihydro-6H-cyclopenta[g]isoquinoline-5-sulfonamide] | 10 to 50
CC(C)CNS(=O)(=O)c1c2c(cc3cnc(C4CC4)cc13)CC1(c3ncc(-c4cccnc4)[nH]3)CC21 (stereo not shown) [Example 2, 13-cyclopropyl-˜{N}-(2-methylpropyl)-6-(5-pyridin-3-yl-1˜{H}-imidazol-2-yl)-12-azatetracyclo[8.4.0.0^{3,8}.0^{4,6}]tetradeca-1,3 (8),9,11,13-pentaene-2-sulfonamide] | 10 to 50
CC(=O)Nc1cncc(NC2Cc3cc4cnc(C5CC5)cc4c(S(=O)(=O)NCC(C)(C)F)c3C2)c1 (stereo not shown) [Example 121, N-[5-[[3-cyclopropyl-5-[(2-fluoro-2-methylpropyl)sulfamoyl]-7,8-dihydro-6H-cyclopenta[g]isoquinolin-7-yl]amino]pyridin-3-yl]acetamide] | 10 to 50
Cn1ccc(Oc2ccncc2N[C@@H]2Cc3cc4cnc(C5CC5)cc4c(S(=O)(=O)NCC(C)(C)F)c3C2)n1 [Example 128, (7R)-3-cyclopropyl-N-(2-fluoro-2-methylpropyl)-7-[[4-(1-methylpyrazol-3-yl)oxypyridin-3-yl]amino]-7,8-dihydro-6H-cyclopenta[g]isoquinoline-5-sulfonamide] | 50 to 100
CC(C)(F)CNS(=O)(=O)c1c2c(cc3cnc(C4CC4)cc13)C[C@@H](Nc1cnc(Cl)cc1-c1nnn[nH]1)C2 [Example 126, (7R)-7-[[6-chloro-4-(1H-tetrazol-5-yl)pyridin-3-yl]amino]-3-cyclopropyl-N-(2-fluoro-2-methylpropyl)-7,8-dihydro-6H-cyclopenta[g]isoquinoline-5-sulfonamide] | 100 to 2000
CC(C)(F)CNS(=O)(=O)c1c2c(cc3cnc(C4CC4)cc13)CC(Nc1cc[nH]c(=O)c1)C2 (stereo not shown) [Example 63, 3-cyclopropyl-N-(2-fluoro-2-methylpropyl)-7-[(2-oxo-1H-pyridin-4-yl)amino]-7,8-dihydro-6H-cyclopenta[g]isoquinoline-5-sulfonamide] | 10 to 50
CC(C)CNS(=O)(=O)c1c2c(cc3cnc(C4CC4)cc13)C[C@H](Nc1nncn1-c1cccnc1)C2 (single isomer, unassigned) [Example 3, (7R*)-3-cyclopropyl-N-(2-methylpropyl)-7-[(4-pyridin-3-yl-1,2,4-triazol-3-yl)amino]-7,8-dihydro-6H-cyclopenta[g]isoquinoline-5-sulfonamide [* or S]] | 10 to 50
CC(C)(F)CNS(=O)(=O)c1c2c(cc3cnc(C4CC4)cc13)C[C@@H](NC(=O)c1ccc3c(c1)CN(C(=O)OC(C)(C)C)C3)C2 [Example 136, tert-butyl 5-[[(7R)-3-cyclopropyl-5-[(2-fluoro-2-methylpropyl)sulfamoyl]-7,8-dihydro-6H-cyclopenta[g]isoquinolin-7-yl]carbamoyl]-1,3-dihydroisoindole-2-carboxylate] | 10 to 50
CC(C)(F)CNS(=O)(=O)c1c2c(cc3cnc(C4CC4)cc13)CC(Nc1ccc(N3CC(C)(O)C3)nc1)C2 (stereo not shown) [Example 27, 3-cyclopropyl-N-(2-fluoro-2-methylpropyl)-7-[[6-(3-hydroxy-3-methylazetidin-1-yl)pyridin-3-yl]amino]-7,8-dihydro-6H-cyclopenta[g]isoquinoline-5-sulfonamide] | 100 to 2000
CC(C)(F)CNS(=O)(=O)c1c2c(cc3cnc(C4CC4)cc13)CC(NC1=CC(=O)CCC1)C2 (stereo not shown) [Example 7, 3-cyclopropyl-N-(2-fluoro-2-methylpropyl)-7-[(3-oxocyclohexen-1-yl)amino]-7,8-dihydro-6H-cyclopenta[g]isoquinoline-5-sulfonamide] | 50 to 100
CCNC(=O)N1Cc2cc3cnc(C4CC4)cc3c(S(=O)(=O)NCC(C)C)c2C1 [Example 100, 7-cyclopropyl-N-ethyl-9-(2-methylpropylsulfamoyl)-1,3-dihydropyrrolo[3,4-g]isoquinoline-2-carboxamide] | 100 to 2000
Cn1cc(C(=O)N[C@@H]2Cc3cc4cnc(C5CC5)cc4c(S(=O)(=O)NCC(C)(C)F)c3C2)c2ccccc21 [Example 132, N-[(7R)-3-cyclopropyl-5-[(2-fluoro-2-methylpropyl)sulfamoyl]-7,8-dihydro-6H-cyclopenta[g]isoquinolin-7-yl]-1-methylindole-3-carboxamide] | 10 to 50
Cc1ccc(NC2Cc3cc4cnc(C5CC5)cc4c(S(=O)(=O)NCC(C)(C)O)c3C2)nn1 (stereo not shown) [Example 80, 3-cyclopropyl-N-(2-hydroxy-2-methylpropyl)-7-[(6-methylpyridazin-3-yl)amino]-7,8-dihydro-6H-cyclopenta[g]isoquinoline-5-sulfonamide] | 100 to 2000
CC(C)(F)CNS(=O)(=O)c1c2c(cc3cnc(C4CC4)cc13)CN(Cc1ccn[nH]1)C2 [Example 102, 7-cyclopropyl-N-(2-fluoro-2-methylpropyl)-2-(1H-pyrazol-5-ylmethyl)-1,3-dihydropyrrolo[3,4-g]isoquinoline-9-sulfonamide] | 100 to 2000
CC(C)(F)CNS(=O)(=O)c1c2c(cc3cnc(C4CC4)cc13)C[C@@H](NC(=O)c1ccc3[nH]nnc3c1)C2 [Example 34, N-[(7R)-3-cyclopropyl-5-[(2-fluoro-2-methylpropyl)sulfamoyl]-7,8-dihydro-6H-cyclopenta[g]isoquinolin-7-yl]-1H-benzotriazole-5-carboxamide] | 10 to 50
CC(C)CNS(=O)(=O)c1c2c(cc3cnc(C4CC4)cc13)CC(NC1=CC(=O)CC1)C2 (stereo not shown) [Example 4, 3-cyclopropyl-N-(2-methylpropyl)-7-[(3-oxocyclopenten-1-yl)amino]-7,8-dihydro-6H-cyclopenta[g]isoquinoline-5-sulfonamide] | 10 to 50
CC(C)CNS(=O)(=O)c1c2c(cc3cnc(C4CC4)cc13)C(O)CC2 (stereo not shown) [Example 47, 3-cyclopropyl-8-hydroxy-N-(2-methylpropyl)-7,8-dihydro-6H-cyclopenta[g]isoquinoline-5-sulfonamide] | 100 to 2000
CC(C)(F)CNS(=O)(=O)c1c2c(cc3cnc(C4CC4)cc13)C[C@@H](NC(=O)c1c[nH]c3ccccc13)C2 [Example 130, N-[(7R)-3-cyclopropyl-5-[(2-fluoro-2-methylpropyl)sulfamoyl]-7,8-dihydro-6H-cyclopenta[g]isoquinolin-7-yl]-1H-indole-3-carboxamide] | 10 to 50
